Measured values as given in patent US20160022675A1, “PROCESSES FOR PREPARING TETRAHYDROISOQUINOLINES” (BRISTOL-MYERS SQUIBB COMPANY, priority 2013, published 2016).
Read-outs that look alike come from different tables or passages of the source.

Key:
NET [1] = target: T1, NET (Mus musculus, UniProt O55192); assay: NET occupancy in the brain, mouse; format: in vivo
T1 construct: from tissue; host or cells: mouse brain
Procedure: (§1) The effects of Compound 1-(4S) in the mouse tail suspension model of depression and target site occupancy were assessed to compare occupancies associated with the behavioral response. The mouse tail suspension model is known the art. […] The lowest effective dose of Compound 1-(4S), 0.3 mg/kg, PO, decreased immobility by 77% relative to vehicle-treated controls. […] Administration of Compound 1-(4S) led to dose-dependent occupancy of SERT, NET, and DAT binding sites in the brain. At the lowest behaviorally-effective dose (0.3 mg/kg), occupancies were 86±1% of SERT, 76±3% of NET, and 28±3% of DAT. At 1 mg/kg, occupancies were 89±1%, 82±1% and 54±3% at SERT, NET, and DAT, respectively. Pharmacokinetics and pharmacodynamics (PD) in mouse, rat, and dog focused primarily on DAT occupancy since SERT and NET occupancies were saturated by drug for most, if not all, of the times studied. DAT occupancy increased as a function of increasing plasma exposure. The DAT occupancy to total plasma level could be fitted using a single binding site model and plasma level ED50 (the dose producing 50% effect) values could be calculated.
To better understand the margin between doses of Compound 1-(4S) that are effective in the mouse tail suspension models and those that lead to monoamine-related side effects, locomotor activity was examined to assess psychostimulant properties and stereotypy was examined to assess more severe DA-related side effects. Increased body temperature, another effect that has been attributed to DA pharmacology, was also studied. In the mouse, Compound 1-(4S) increased locomotor activity and stereotypy scores at doses of 3.0 mg/kg and 10 mg/kg, respectively. Thus, the margin between the Compound 1-(4S) effective dose in the mouse tail suspension and increased locomotor activity was 10-fold and the margin versus activity in stereotypy was 30-fold. The thermogenic effect of Compound 1-(4S) was studied in mice and rats by measuring changes in rectal temperature following administration of the compound. […] The onset of the thermogenesis was earlier as the dose was increased. […]

DAT [2] = target: T2, DAT (Rattus norvegicus, UniProt P23977); assay: DAT occupancy, rat; format: in vivo
T2 construct: from tissue; host or cells: rat, in vivo dosing
Procedure: as §1
(§2) To better understand the margin between doses of Compound 1-(4S) that are effective in the mouse tail suspension models and those that lead to monoamine-related side effects, locomotor activity was examined to assess psychostimulant properties and stereotypy was examined to assess more severe DA-related side effects. Increased body temperature, another effect that has been attributed to DA pharmacology, was also studied. In the mouse, Compound 1-(4S) increased locomotor activity and stereotypy scores at doses of 3.0 mg/kg and 10 mg/kg, respectively. Thus, the margin between the Compound 1-(4S) effective dose in the mouse tail suspension and increased locomotor activity was 10-fold and the margin versus activity in stereotypy was 30-fold. The thermogenic effect of Compound 1-(4S) was studied in mice and rats by measuring changes in rectal temperature following administration of the compound. […] The onset of the thermogenesis was earlier as the dose was increased. The levels of SERT and NET occupancy were over 80% and appeared saturated across the doses tested. The DAT occupancy was dose-dependent, with 55±5.7% at 1.0 mg/kg, 74±6% at 3.0 mg/kg, and 83±0.8% at 10 mg/kg. […] The onset of the temperature increase was earlier at the highest dose of 10 mg/kg. […] The DAT occupancy was 37±8.3%, 55±5.2%, and 71±1.7% at 1.0, 3.0, and 10 mg/kg, respectively. Consistent with data obtained with mice, the thermogenic effect of Compound 1-(4S) is dose dependently related to DAT occupancy and at least 50% DAT occupancy is needed for this effect.

DAT [3] = target: DAT (Canis lupus familiaris, UniProt B6EUL3); assay: DAT occupancy, dog; format: in vivo; details: single binding site model, read-out: total plasma concentration producing 50% effect (EC50), DAT occupancy
Procedure: as §1

stereotypy = assay: Stereotypy, mouse; format: in vivo
Excerpt: as §2, with “Consistent with data obtained with mice, the thermogenic effect of Compound 1-(4S) is dose dependently related to DAT occupancy and at least 50% DAT occupancy is needed for this effect.” left out

rectal temperature = assay: Thermogenic effect (rectal temperature), mouse; format: in vivo; details: 4 hours after doses of 1, 3, and 10 mg/kg
Excerpt: as §2, with “Consistent with data obtained with mice, the thermogenic effect of Compound 1-(4S) is dose dependently related to DAT occupancy and at least 50% DAT occupancy is needed for this effect.” left out

SERT [4] = target: T3, SERT (Rattus norvegicus, UniProt P31652); assay: SERT occupancy, rat; format: in vivo; details: thermogenesis study, all 3 doses (1.0, 3.0, 10 mg/kg)
T3 construct: from tissue; host or cells: rat, in vivo dosing
Excerpt: as §2, with “Consistent with data obtained with mice, the thermogenic effect of Compound 1-(4S) is dose dependently related to DAT occupancy and at least 50% DAT occupancy is needed for this effect.” left out

cocaine-lever responding = details: rat, in vivo; for cocaine-lever responding: po
Procedure: Compound 1-(4S) was evaluated in a cocaine discrimination assay in rats, a model used to address abuse potential. The cocaine discrimination assay is known the art Compound 1-(4S) was administered and the percentage of rats that responded by selecting the cocaine-associated lever was measured. […] Since the subjective effects of cocaine are evident 15 minutes after dosing, Compound 1-(4S) was tested at the earlier time point. […] In addition, the onset of this partial effect was slower than the onset of the subjective effects of cocaine in this model.

Solution pH = format: physicochemical; details: at about 1 μg/mL concentration in water
[5] = pH-Solubility profile (aqueous); format: physicochemical; details: aqueous solution, aqueous buffer; solution pH 6.5 and above
DAT [6] = target: T4, DAT (Homo sapiens, UniProt Q01959); assay: [3H]DA uptake into HEK293/hDAT cells; format: cell-based; design: expressed in transfected cells; host or cells: HEK293; details: read-out: Dopamine reuptake IC50 ([3H]DA uptake)
Excerpt: (§3) Cell-based assays were used to determine the ability of Compound 1-(4S) to inhibit reuptake of 3H-labeled DA ([3H]DA), NE ([3H]NE), and 5-HT ([3H]5-HT).

SERT [7] = target: T5, SERT (Homo sapiens, UniProt P31645); assay: [3H]5-HT uptake into HEK293/hSERT cells; format: cell-based; design: expressed in transfected cells; host or cells: HEK293; details: read-out: Serotonin reuptake IC50 ([3H]5-HT uptake)
Excerpt: as §3

SERT [8] = target: T5, SERT; assay: Competition binding, membranes from HEK cells overexpressing SERT; design: expressed in transfected cells; host or cells: HEK cells (membranes)
Procedure: (§4) Competition binding experiments were performed to determine the in vitro binding potencies (IC50 values) of Compound 1-(4S) for SERT, DAT, and NET. Membranes prepared from human embryonic kidney (HEK) cells overexpressing each transporter were employed. Radioligands were used at their respective affinity constant (Kd) concentrations for each transporter to enable direct comparisons of the IC50 values between assays.

DAT [9] = target: T4, DAT; assay: Competition binding, membranes from HEK cells overexpressing DAT; design: expressed in transfected cells; host or cells: HEK cells (membranes); details: radioligand at Kd concentration; HEK cell membranes
Procedure: as §4

NET [10] = target: NET (Homo sapiens, UniProt P23975); assay: Competition binding, membranes from HEK cells overexpressing NET; design: expressed in transfected cells; host or cells: HEK cells (membranes); details: radioligand at Kd concentration; HEK cell membranes
Procedure: as §4

T1 sequence (O55192 whole entry): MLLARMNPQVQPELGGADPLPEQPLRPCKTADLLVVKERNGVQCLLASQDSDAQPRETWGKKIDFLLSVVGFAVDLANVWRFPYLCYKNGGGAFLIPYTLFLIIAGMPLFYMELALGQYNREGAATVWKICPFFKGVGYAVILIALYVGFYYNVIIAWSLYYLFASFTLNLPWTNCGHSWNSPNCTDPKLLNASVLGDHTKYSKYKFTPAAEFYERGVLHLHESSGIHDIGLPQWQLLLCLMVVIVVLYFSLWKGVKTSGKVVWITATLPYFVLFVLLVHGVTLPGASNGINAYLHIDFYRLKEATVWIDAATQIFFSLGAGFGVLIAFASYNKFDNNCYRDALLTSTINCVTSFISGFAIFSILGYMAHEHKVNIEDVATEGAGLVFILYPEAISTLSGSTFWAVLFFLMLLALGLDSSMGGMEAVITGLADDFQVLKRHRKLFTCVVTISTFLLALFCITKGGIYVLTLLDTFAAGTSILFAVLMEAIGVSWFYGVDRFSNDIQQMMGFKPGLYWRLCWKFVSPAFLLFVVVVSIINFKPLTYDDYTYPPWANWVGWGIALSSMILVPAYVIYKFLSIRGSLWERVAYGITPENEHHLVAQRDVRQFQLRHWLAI
T2 sequence (P23977 whole entry): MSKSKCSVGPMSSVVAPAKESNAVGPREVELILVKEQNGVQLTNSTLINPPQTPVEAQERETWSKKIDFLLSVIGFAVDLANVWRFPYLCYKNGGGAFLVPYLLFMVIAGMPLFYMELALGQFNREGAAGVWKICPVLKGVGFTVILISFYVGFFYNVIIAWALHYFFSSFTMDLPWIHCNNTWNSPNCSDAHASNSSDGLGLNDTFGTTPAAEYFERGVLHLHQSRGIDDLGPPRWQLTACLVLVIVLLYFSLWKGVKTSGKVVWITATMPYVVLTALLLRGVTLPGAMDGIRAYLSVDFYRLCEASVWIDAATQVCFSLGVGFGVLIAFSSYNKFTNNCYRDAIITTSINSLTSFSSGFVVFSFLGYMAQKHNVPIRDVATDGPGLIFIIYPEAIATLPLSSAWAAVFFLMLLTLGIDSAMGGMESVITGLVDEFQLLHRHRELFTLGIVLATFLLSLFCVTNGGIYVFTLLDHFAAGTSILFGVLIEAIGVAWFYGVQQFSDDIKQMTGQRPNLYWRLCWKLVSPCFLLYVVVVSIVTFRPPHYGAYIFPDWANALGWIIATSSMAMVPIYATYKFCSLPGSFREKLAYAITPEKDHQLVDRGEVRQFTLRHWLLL
T5 sequence (P31645 whole entry): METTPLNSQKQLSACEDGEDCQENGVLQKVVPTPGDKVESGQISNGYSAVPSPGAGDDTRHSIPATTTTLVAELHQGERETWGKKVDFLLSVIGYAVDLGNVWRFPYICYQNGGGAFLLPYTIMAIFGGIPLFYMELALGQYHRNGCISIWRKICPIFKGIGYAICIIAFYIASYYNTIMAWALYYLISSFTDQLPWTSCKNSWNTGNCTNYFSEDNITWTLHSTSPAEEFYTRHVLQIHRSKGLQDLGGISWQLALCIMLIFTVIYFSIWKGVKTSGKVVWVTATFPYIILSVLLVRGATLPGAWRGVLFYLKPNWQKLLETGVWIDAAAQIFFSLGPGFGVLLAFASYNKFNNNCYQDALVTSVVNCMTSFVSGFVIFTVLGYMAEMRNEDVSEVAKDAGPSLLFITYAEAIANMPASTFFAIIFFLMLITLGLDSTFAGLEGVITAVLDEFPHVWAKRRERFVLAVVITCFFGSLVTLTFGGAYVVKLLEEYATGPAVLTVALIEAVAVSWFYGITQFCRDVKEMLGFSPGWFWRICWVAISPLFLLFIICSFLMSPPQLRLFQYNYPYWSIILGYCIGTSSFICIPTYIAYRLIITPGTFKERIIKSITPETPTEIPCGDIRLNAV
T4 sequence (Q01959 whole entry): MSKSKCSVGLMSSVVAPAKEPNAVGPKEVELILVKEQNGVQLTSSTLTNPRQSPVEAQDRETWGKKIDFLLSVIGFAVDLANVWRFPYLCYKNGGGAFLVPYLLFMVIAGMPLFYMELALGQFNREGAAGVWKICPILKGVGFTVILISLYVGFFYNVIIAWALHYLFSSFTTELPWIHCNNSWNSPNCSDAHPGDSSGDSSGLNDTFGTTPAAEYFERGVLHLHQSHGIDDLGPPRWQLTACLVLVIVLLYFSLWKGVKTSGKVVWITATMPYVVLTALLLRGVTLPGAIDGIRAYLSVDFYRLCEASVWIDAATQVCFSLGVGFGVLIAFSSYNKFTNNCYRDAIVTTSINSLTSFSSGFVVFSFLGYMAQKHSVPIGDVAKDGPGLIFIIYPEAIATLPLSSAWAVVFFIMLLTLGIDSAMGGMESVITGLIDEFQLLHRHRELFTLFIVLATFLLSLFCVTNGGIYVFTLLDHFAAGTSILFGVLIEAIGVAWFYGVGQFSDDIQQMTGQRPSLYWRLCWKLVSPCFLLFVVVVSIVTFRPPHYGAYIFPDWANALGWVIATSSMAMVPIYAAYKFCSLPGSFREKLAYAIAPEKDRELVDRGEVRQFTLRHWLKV
Sequence of DAT (Canis lupus familiaris, UniProt B6EUL3) (B6EUL3 1-617): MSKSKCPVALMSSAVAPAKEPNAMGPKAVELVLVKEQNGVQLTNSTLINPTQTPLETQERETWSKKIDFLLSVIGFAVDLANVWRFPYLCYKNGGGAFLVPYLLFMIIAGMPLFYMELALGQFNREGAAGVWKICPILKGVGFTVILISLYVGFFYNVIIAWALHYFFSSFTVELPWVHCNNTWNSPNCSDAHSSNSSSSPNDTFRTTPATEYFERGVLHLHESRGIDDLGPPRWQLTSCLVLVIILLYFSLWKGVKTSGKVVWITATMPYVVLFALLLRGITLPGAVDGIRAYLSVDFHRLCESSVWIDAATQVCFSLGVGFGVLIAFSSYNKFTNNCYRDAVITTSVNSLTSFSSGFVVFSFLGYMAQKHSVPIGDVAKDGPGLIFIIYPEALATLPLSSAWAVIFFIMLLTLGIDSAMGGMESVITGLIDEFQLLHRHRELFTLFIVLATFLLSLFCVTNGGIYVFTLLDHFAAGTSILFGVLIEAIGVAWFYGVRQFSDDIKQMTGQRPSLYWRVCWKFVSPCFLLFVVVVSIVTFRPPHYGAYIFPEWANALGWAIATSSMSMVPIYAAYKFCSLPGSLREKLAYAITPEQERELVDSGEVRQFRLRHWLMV
Sequence of NET (Homo sapiens, UniProt P23975) (P23975 whole entry): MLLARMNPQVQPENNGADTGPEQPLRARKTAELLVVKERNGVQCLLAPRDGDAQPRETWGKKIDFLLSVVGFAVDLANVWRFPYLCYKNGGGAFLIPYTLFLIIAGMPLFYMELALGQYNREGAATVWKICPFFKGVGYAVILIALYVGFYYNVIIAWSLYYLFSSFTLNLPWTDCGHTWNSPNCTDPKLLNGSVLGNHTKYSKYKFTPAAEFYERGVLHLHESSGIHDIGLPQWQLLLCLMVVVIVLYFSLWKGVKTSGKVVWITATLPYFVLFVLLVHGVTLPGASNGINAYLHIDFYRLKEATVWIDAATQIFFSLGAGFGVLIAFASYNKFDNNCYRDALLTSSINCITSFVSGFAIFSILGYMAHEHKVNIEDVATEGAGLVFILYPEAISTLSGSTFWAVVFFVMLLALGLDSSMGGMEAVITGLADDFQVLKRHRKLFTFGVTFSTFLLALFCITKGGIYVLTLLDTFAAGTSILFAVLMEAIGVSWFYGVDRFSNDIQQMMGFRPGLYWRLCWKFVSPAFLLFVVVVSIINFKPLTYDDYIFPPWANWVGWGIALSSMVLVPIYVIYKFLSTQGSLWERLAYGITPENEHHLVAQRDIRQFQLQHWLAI
T3 sequence (P31652 whole entry): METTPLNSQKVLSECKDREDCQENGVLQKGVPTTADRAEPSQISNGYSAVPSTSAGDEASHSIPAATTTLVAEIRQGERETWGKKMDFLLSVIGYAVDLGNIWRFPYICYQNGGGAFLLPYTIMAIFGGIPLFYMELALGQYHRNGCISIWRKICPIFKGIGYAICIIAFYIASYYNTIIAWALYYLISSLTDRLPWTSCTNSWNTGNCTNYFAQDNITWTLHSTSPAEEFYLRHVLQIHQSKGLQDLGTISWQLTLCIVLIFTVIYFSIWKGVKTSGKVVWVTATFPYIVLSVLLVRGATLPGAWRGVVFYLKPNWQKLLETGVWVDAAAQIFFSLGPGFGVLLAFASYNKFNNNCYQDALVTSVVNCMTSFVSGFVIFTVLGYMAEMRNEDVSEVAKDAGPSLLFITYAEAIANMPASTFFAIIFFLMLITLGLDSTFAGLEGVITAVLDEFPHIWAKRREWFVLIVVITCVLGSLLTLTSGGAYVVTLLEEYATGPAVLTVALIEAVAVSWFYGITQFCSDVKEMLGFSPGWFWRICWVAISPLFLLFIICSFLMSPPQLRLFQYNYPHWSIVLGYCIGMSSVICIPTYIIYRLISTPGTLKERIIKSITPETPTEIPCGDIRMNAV

CN1Cc2cc(-c3ccc(N)nn3)ccc2[C@H](c2ccc3ccccc3c2)C1 [Compound 1-(4S), 6-[(4S)-1,2,3,4-tetrahydro-2-methyl-4-(2-naphthalenyl)-7-isoquinolinyl]-3-pyridazinamine]
receptor occupancy at 0.3 mg/kg (NET [1]; mouse brain, 0.3 mg/kg, tail suspension study): 76 ± 3% | receptor occupancy at 1 mg/kg (NET [1]; mouse brain, 1 mg/kg, tail suspension study): 82 ± 1% | NET occupancy (NET [1]; mouse, thermogenesis study, across doses 1, 3, 10 mg/kg): over 80% | EC50 (DAT [2]; single binding site model, read-out: total plasma concentration producing 50% effect (EC50), DAT occupancy): 47 nM | receptor occupancy at 1 mg/kg (DAT [2]; thermogenesis study, 1.0 mg/kg): 37 ± 8.3% | receptor occupancy at 3 mg/kg (DAT [2]; thermogenesis study, 3.0 mg/kg): 55 ± 5.2% | receptor occupancy at 10 mg/kg (DAT [2]; thermogenesis study, 10 mg/kg): 71 ± 1.7% | EC50 (DAT [3]): 103 nM | dose that increased stereotypy scores (stereotypy): 10 mg/kg | margin between effective dose in mouse tail suspension and activity in stereotypy (stereotypy): 30 fold | change in rectal temperature (rectal temperature): significant increases | SERT occupancy (SERT [4]): nearly saturated | substitution for the cocaine stimulus (cocaine-lever responding): partially substituted for the cocaine stimulus | cocaine-lever responding (cocaine-lever responding; 0.1 mg/kg, 60 min): less than 1% | cocaine-lever responding (cocaine-lever responding; 0.3 mg/kg, 15 min): 11% | cocaine-lever responding (cocaine-lever responding; 0.3 mg/kg, 60 min): 53% | cocaine-lever responding (cocaine-lever responding; 1 mg/kg, 15 min): 10% | cocaine-lever responding (cocaine-lever responding; 3 mg/kg, 15 min): 28% | Solution pH (Solution pH): ~7.0 at about 1 μg/mL concentration in water | solubility [5]: ≤ 1 µg/mL | IC50 (DAT [6]): 31.5 ± 2.5 nM | IC50 (SERT [7]): 18.5 ± 5.5 nM | IC50 (SERT [8]): 1.08 ± 0.09 nM | IC50 (DAT [9]): 5.67 ± 0.36 nM | IC50 (NET [10]): 7.99 ± 0.43 nM
